{
  "source": "patent US4567182A",
  "about": "“Compounds endowed with immunomodulating activity” (Co Pharma Corporation s.r.l., priority 1981, dated 1986)",
  "key": {"[1]": {"test_system": "spleen cells from BALB/C mice", "assay": "Incorporation of labelled thymidine stimulated by PHA or LPS in spleen cells", "type": "cell-based, mouse (BALB/C)", "design": "Thymid. inc.: unit not given here", "experimental": "Ib-4 is also active, at doses ranging from 0.001 to 40 μg/ml, in inhibiting the incorporation of labelled thymidine stimulated by phytohemagglutinin (PHA) or lypopolysaccharides (LPS), in spleen cells from BALB/C mice 8-10 weeks old. The inhibition of the proliferation in vitro is dose-dependent and it is probably due to activation of suppressor cell mechanism. In the following table the results of thymidine incorporation in a 10^6 cells/ml culture have been listed."}, "[2]": {"test_system": "allogeneic mitomycin-treated lymphocytes", "assay": "Suppressor cell effect: Mixed Lymphocytes Reaction", "type": "cell-based, human (healthy volunteers)", "settings": "0.1 to 1.5 μg/ml; 48 h drug incubation; mixed lymphocytes 5 days", "experimental": "(§1) The effect of (Ib-4) on the suppressor cell has also been studied using lymphocytes from healthy volunteers, incubated for 48 hours with different drug concentrations then washed and incubated either with autologous lymphocytes stimulated by concanavalin A for 3 days or with allogeneic mitomycin-treated lymphocytes for 5 days (Mixed Lymphocytes Reaction): (Ib-4), at concentrations between 0.1 and 1.5 μg/ml, gave an inhibition of the proliferative response of about 60% in comparison with controls."}, "[3]": {"test_system": "PHA stimulated lymphocytes", "assay": "Stimulation by phytohemagglutinin (PHA) of lymphocytes from Hodgkin's disease patients", "type": "cell-based, human (patients affected by Hodgkin's disease)", "settings": "for effect on the PHA response: Ib-4 already at 0.1 γ/ml, methisoprinol at 200-400 γ/ml", "excerpt": "In FIG. 1, the effects of compound (Ib-4) are shown in comparison with methisoprinol on the stimulation by phytohemagglutinin (PHA) of lymphocytes extracted by patients affected by Hodgkin's disease and off-therapy since, at least, 17 months. The PHA response of lymphocytes of these patients are below normal range.\nThe in vitro effect of (Ib, 4) and methisoprinol on the stimulation by PHA of lymphocytes was studied by cultivating PHA stimulated lymphocytes in the presence of these compounds at different doses: methisoprinol at 100, 200, 400 γ/ml; (Ib-4) at 0.1, 0.5, 1 and 5 γ/ml."}, "[4]": {"test_system": "polymorphonuclear leucocytes", "assay": "Polymorphonuclear (PMN) membrane-stimulated oxidative metabolic activity (superoxide production)", "type": "cell-based", "experimental": "In FIG. 2 the results of the study of the effect of (Ib-4) on the polymorphonuclear (PMN) […] membrane-stimulated oxidative metabolic activity are reported: polymorphonuclear leucocytes (2.5×10^4 /ml) in phosphate buffer solution (PBS) were incubated for 15' at 37° C. with ferricytochrome C (1.5 mg/ml) in the presence or absence of superoxide dismutase (SOD) (0.125 mg/ml) after the addition of 50 μl of stimulating agent.\nThe amount of reduced cytochrome C in che cell free supernatant was determined spectrophotometrically at 550 nm and the O2^- release calculated according to a standard formula. Appropriate control tubes contained fixed doses of (Ib-4) (from 0.01 γ/ml to 200 γ/ml)."}, "[5]": {"test_system": "autologous lymphocytes stimulated by concanavalin A", "assay": "Suppressor cell effect: proliferative response of autologous lymphocytes stimulated by concanavalin A", "type": "cell-based, human (healthy volunteers)", "settings": "0.1 to 1.5 μg/ml; 48 h drug incubation; concanavalin A 3 days", "experimental": "as §1"}, "T-lymphocytes": {"test_system": "T-lymphocytes", "assay": "Ability of T-lymphocytes to form \"active\" E-rosettes", "type": "cell-based", "experimental": "The effect of the compounds object of this invention on the ability of T-lymphocytes to form \"active\" E-rosettes, has also been studied (Pasino e coll., Boll. Ist. Sieroter, Mil. 60, 4, 297-301, 1981).\nLymphocytes were incubated at 4° for 24 hours, then isolated and incubated for 90 min. in the presence or absence of different concentrations of the drug prior to the assay. Data were expressed as % of cells forming rosettes: as an example, compound (Ib-2) gave an enhancement of the percentage from 35 to 50%, at concentrations from 1 and 3 μg/ml; higher concentrations, the percentage of active E-rosettes decreased."}},
  "data": [
    {"compound": "N=C(NCCC[C@H](N)C(=O)O)NC(=O)CCC(=O)OCCn1cnc2c(O)ncnc21", "note": "[Ib-4, N-{3-[2-(6-hydroxypurinyl-9)-ethoxycarbonyl]propionyl}-N'-(4-carboxy-4-amino-butyl)guanidine]", "values": [
      {"measurement": "Thymid. inc.", "setting": "[1]; LPS (printed LPSD), drug 0.1 μg/ml, control without drug 15631+/-215", "value": "729+/-51"},
      {"measurement": "Thymid. inc.", "setting": "[1]; LPS, drug 0.001 μg/ml, control without drug 15631+/-215", "value": "4600+/-85"},
      {"measurement": "Thymid. inc.", "setting": "[1]; LPS, drug 0.01 μg/ml, control without drug 15631+/-215", "value": "435+/-113"},
      {"measurement": "Thymid. inc.", "setting": "[1]; LPS, drug 1 μg/ml, control without drug 15631+/-215", "value": "665+/-19"},
      {"measurement": "Thymid. inc.", "setting": "[1]; LPS, drug 2.5 μg/ml, control without drug 15631+/-215", "value": "627+/-40"},
      {"measurement": "Thymid. inc.", "setting": "[1]; LPS, drug 5 μg/ml, control without drug 15631+/-215", "value": "445+/-44"},
      {"measurement": "Thymid. inc.", "setting": "[1]; LPS, drug 10 μg/ml, control without drug 15631+/-215", "value": "385+/-38"},
      {"measurement": "Thymid. inc.", "setting": "[1]; LPS, drug 15 μg/ml, control without drug 15631+/-215", "value": "405+/-51"},
      {"measurement": "Thymid. inc.", "setting": "[1]; LPS, drug 20 μg/ml, control without drug 15631+/-215", "value": "385+/-38"},
      {"measurement": "Thymid. inc.", "setting": "[1]; LPS, drug 40 μg/ml, 10^6 cells/ml, control without drug 15631+/-215", "value": "329+/-23"},
      {"measurement": "inhibition of the proliferation in vitro", "setting": "[1]; PHA or LPS stimulated, 0.001 to 40 μg/ml", "value": "dose-dependent"},
      {"measurement": "Thymid. inc.", "setting": "[1]; PHA, drug 0.001 μg/ml, control without drug 3089+/-177", "value": "840+/-87"},
      {"measurement": "Thymid. inc.", "setting": "[1]; PHA, drug 0.01 μg/ml, control without drug 3089+/-177", "value": "850+/-61"},
      {"measurement": "Thymid. inc.", "setting": "[1]; PHA, drug 0.1 μg/ml, control without drug 3089+/-177", "value": "721+/-77"},
      {"measurement": "Thymid. inc.", "setting": "[1]; PHA, drug 1 μg/ml, control without drug 3089+/-177", "value": "316+/-78"},
      {"measurement": "Thymid. inc.", "setting": "[1]; PHA, drug 2.5 μg/ml, control without drug 3089+/-177", "value": "250+/-34"},
      {"measurement": "Thymid. inc.", "setting": "[1]; PHA, drug 5 μg/ml, control without drug 3089+/-177", "value": "193+/-50"},
      {"measurement": "Thymid. inc.", "setting": "[1]; PHA, drug 10 μg/ml, control without drug 3089+/-177", "value": "146+/-19"},
      {"measurement": "Thymid. inc.", "setting": "[1]; PHA, drug 15 μg/ml, control without drug 3089+/-177", "value": "141+/-40"},
      {"measurement": "Thymid. inc.", "setting": "[1]; PHA, drug 20 μg/ml, control without drug 3089+/-177", "value": "241+/-16"},
      {"measurement": "Thymid. inc.", "setting": "[1]; PHA, drug 40 μg/ml, 10^6 cells/ml, control without drug 3089+/-177", "value": "159+/-13"},
      {"measurement": "inhibition of the proliferative response in comparison with controls", "setting": "[2]", "value": "about 60%"},
      {"measurement": "minimal effective concentration", "setting": "[3]; Homo sapiens, Lymphocyte, in vitro, lymphocytes of Hodgkin's disease patients off-therapy, read-out: dose producing enhancement of the PHA response", "value": "≤ 0.1", "unit": "µg/mL"},
      {"measurement": "effect on the PHA response", "setting": "[3]", "value": "marked enhancement of the PHA response"},
      {"measurement": "enhancement in the superoxide production", "setting": "[4]; 1 γ/ml, T-test for paired data", "value": "statistically significant enhancement in the superoxide production"},
      {"measurement": "O2- production at higher dosages", "setting": "[4]; dosages higher than 1 γ/ml (up to 200 γ/ml)", "value": "gradual decrease of the O2^- production"},
      {"measurement": "inhibition of the proliferative response in comparison with controls", "setting": "[5]", "value": "about 60%"}
    ]},
    {"compound": "methisoprinol [reference compound]", "values": [
      {"measurement": "effect on the PHA response", "setting": "[3]", "value": "a stimulating effect which is less than that produced by (Ib-4)"},
      {"measurement": "dose producing enhancement of the PHA response", "setting": "[3]; in vitro, lymphocytes of Hodgkin's disease patients off-therapy", "value": "200 to 400", "unit": "µg/mL"}
    ]},
    {"compound": "CC(NC(=O)CCC(=O)OCCn1cnc2c(O)ncnc21)C(=O)O", "note": "(racemic) [Ib-2, 6-Hydroxy-9-{2-[2-(1-carboxy)ethylaminocarbonylethyl]carbonyloxyethyl}purine]", "values": [
      {"measurement": "% of cells forming active E-rosettes", "setting": "T-lymphocytes; 1 and 3 μg/ml, enhanced from 35%, 90 min incubation", "value": 50, "unit": "%"},
      {"measurement": "percentage of active E-rosettes at higher concentrations", "setting": "T-lymphocytes; concentrations higher than 1 and 3 μg/ml", "value": "decreased"}
    ]}
  ]
}
